Assay results as given in patent US9169509B2, “Topoisomerase 2b as a predictor of susceptibility to anthracycline-induced cardiotoxicity” (Board of Regents, The University of Texas System, priority 2013, dated 2015).
Peptide text beside a SMILES is read from it. * marks the point of attachment. Cbz = O=C(OCc1ccccc1)*

Experiments:
Top2b [1] = target: T1, Top2b (Homo sapiens, UniProt Q02880); test: Immunoblot of Top2b in U2OS cells treated with Dex and/or MG132; type: cell-based
T1 construct: endogenous in cells; host or cells: U2OS
Experimental: (§1) FIG. 10. […] U2OS cells were treated with 100 mM Dex and/or 10 mM MG132, a proteosome inhibitor, for 2, 4, or 6 hours. Cell lysates were immunoblotted with anti-Top2a, Top2b, or actin antibodies.
(§2) The effect of Dex treatment of Top2a levels was also tested. Briefly, U2OS cells were treated with 100 mM Dex and/or 10 mM MG132 (a proteosome inhibitor) for 2, 4, or 6 hours. Cell lysates were immunoblotted with anti-Top2a, Top2b, or actin antibodies.

mouse heart = test: Cardiac MRI for measuring cardiac function after chronic doxorubicin
Experimental: Before Cre induction, cardiac MRI scan was performed on each mouse to examine the baseline ejection fraction. Cardiomyocyte-specific Cre induction was carried out by treating mice with tamoxifen. […] Doxorubicin treatment (5 mg/kg, i.p., once a week for 5 weeks) was started 7 days after the second MRI scan. Two weeks after the last dose of doxorubicin, a third MRI scan was performed (FIG. 6a).
Every mouse in the EF experiments received 3 MRI scans, i.e., a baseline scan, a second scan 2 weeks after the end of tamoxifen treatment, and a third scan 2 weeks after the last dose of doxorubicin. […] Mice were anesthetized with isoflurane (2.5% in 97.5% O2), and scanned on a 7.0 T Biospec small animal scanner (Bruker Biospin Inc., Billerica, Mass.). Imaging gradients with 60 mm inner diameter (ID) were used with a 35 mm ID linear birdcage-style volume resonator. T1-weighted anatomic reference images were acquired using a three dimension (3D) fast low-angle shot (FLASH) gradient echo sequence. A retrospectively gated FLASH pulse sequence was used to acquire cardiac cine images with excellent contrast between bright blood and adjacent myocardium. To measure volumetric left ventricular ejection fraction (LVEF), at least 6 short axis images were scanned at 1 mm interval from the apex to the base of the heart. End-diastolic (ED) and end-systolic (ES) left ventricular volumes were obtained by the biplane area length method, and LVEF was calculated with the equation: [(ED-ES)/ED]/100.
Two weeks after completion of tamoxifen treatment mice were treated with doxorubicin or drug vehicle. Two cohorts of mice were treated with different schedules. […] To evaluate the chronic effect of doxorubicin on cardiac function, doxorubicin (5 mg/kg, i.p.) was administered once a week for 5 weeks, and cardiac function was examined 2 weeks after the last dose of doxorubicin by using MRI.
The effect of chronic doxorubicin treatment (5 mg/kg, ip, once a week for 5 weeks) was evaluated for its effect on ejection fraction.

[2] = tested on: DNA double strand breaks in the heart; test: Detection of DNA double strand breaks (γ-H2AX staining) in heart sections; type: in vivo, mouse; details: dexrazoxane 100 mg/kg ip 8 hrs prior to doxorubicin 25 mg/kg; hearts 16 hr after doxorubicin
Experimental: After mice were sacrificed, hearts were perfused with ice-cold PBS, quickly removed, embedded in OCT compound (Fisher Scientific), and snap-frozen in liquid nitrogen. The heart was sectioned to 5 μm-thick slices using a cryostat. Heart sections were stored at −80° C. until immunofluorescence staining was performed. Heart sections were rinsed with PBS at room temperature, fixed in BD Cytofix/Cytoperm solution (BD Biosciences) for 15 m, washed in PBS, and permeabilized in BD Perm/Wash solution for 30 m. Heart sections were first blocked with BSA (2 mg/ml) for 30 m, then incubated with an mouse monoclonal anti-γ-H2AX antibody conjugated with Alexa Fluor 555 (Clone N1-431, BD Biosciences) for 1 h. Nuclei were stained with DAPI (Sigma, 1 μg/ml PBS), and the slides were sealed for examination with an Olympus epifluorescence microscope (Model BX51). To quantify DSBs, the numbers of γ-H2AX-positive nuclei and the total nuclei were counted in 5 microscopic fields (400×) per section. For each mouse, five heart sections were counted to determine the percentage of γ-H2AX-positive nuclei.
To further confirm the cardio-protective effect of Dex, DNA double strand breaks were assessed in heart tissues. Dexrazoxane (100 mg/kg) was injected (ip) 8 hrs prior to doxorubicin (25 mg/kg) treatment. Hearts were harvested 16 hr after doxorubicin treatment. The percentage of γH2AX-positive nuclei was counted in 5 fields (400×) in each heart section. Five sections were counted in each heart to determine the average percentage of γH2AX-positive nuclei.

heart sections = test: Detection of apoptosis in heart sections (TUNEL assay); type: in vivo, mouse; details: dexrazoxane 100 mg/kg ip 8 hrs prior to doxorubicin 25 mg/kg ip; hearts 16 hrs after doxorubicin
Experimental: Apoptosis was detected by using TUNEL assay on heart sections. Heart harvest, sectioning, and storage were described above. Heart sections were warmed to room temperature before the apoptotic nuclei were stained by using a commercially available kit (In Situ Cell Death Detection Kit, Cat. No. 12156792910, Roche Applied Science). The entire staining procedures were performed according to the manufacturer's instructions. The nuclei were stained with DAPI (Sigma) before the slides were sealed and examined with an Olympus epifluorescence microscope (Model BX51). The apoptotic nuclei and the total nuclei per heart section were counted at 200× magnification. The apoptotic nuclei in 5 heart sections of each mouse were counted and averaged.
The cardio-protective effect of Dex against doxirubin-induced apoptosis was assessed in heart tissues. Dexrazoxane (100 mg/kg) was injected (ip) 8 hrs prior to doxorubicin (25 mg/kg) injection (ip). One group received only doxorubicin and a second group received only dexrazoxane. Hearts were harvested 16 hrs after doxorubicin treatment. The numbers of TUNEL-positive nuclei were counted in five fields in each heart section.

Top2b [3] = target: T2, Top2b (Mus musculus, UniProt Q64511); test: Western blot of Top2b protein levels in heart tissue after dexrazoxane; type: in vivo; details: dexrazoxane 100 mg/kg i.p.
T2 construct: Frozen tissues were homogenized in lysis buffer and sonicated to extract proteins for western blotting; from tissue; host or cells: mouse heart
Experimental: Expression of Top2b was examined in the hearts of mice. After sacrifice, the heart was quickly removed and homogenized immediately in lysis buffer. After homogenization, the lysate was sonicated at 4° C. and an aliquot was removed for protein concentration measurement. The lysate was stored at −80° C. for western blot analysis. 20 μg of lysate proteins were electrophoresed and transferred to PVDF membranes. Blots were blocked with 5% non-fat dry milk, and incubated overnight at 4° C. with anti-Top2b antibody (Abcam). To detect mitochondrial proteins, the mitochondria were isolated from cardiomyocytes. The cardiomyocytes were isolated with a Langendorff perfusion system according to a published protocol3. Briefly, heart was removed and rinsed with ice-cold PBS twice before connecting to a Langendorff apparatus through the aorta. The heart was perfused first with perfusion buffer for 3 m at 37° C. (3 ml/min), then digestion buffer (enzyme-containing) buffer at 37° C. for 8-10 m. The heart was disintegrated manually and the tissue/cells were separated by using forceps. The tissue/cell suspension was incubated for another 3-5 m in digestion buffer, then triturate the cells gently using a 1 ml pipette before adding stopping buffer. After purification by centrifugation the mitochondria were isolated from the cardiomyocytes with a kit (Cat. No. MS853, Mitosciences) for separating mitochondria from nuclei and cytosol. The isolated mitochondria were homogenized in lysis buffer and sonicated before being stored at −80° C. until use. 20 μg of lysate proteins were electrophoresed and transferred to PVDF membranes. Blots were blocked incubated overnight at 4° C. with anti-Ndufa3 (Sigma), anti-Atp5a (Abcam) or anti-Sdha antibodies (Abcam). After incubation with HRP-conjugated secondary antibodies for 40 m at room temperature, the blots were detected with a luminol-based detection kit (ECL, GE Health Care).
To test the effect of dexrazoxane (Dex) on Top2b protein levels, mice were treated with dexrazoxane (100 mg/kg, i.p.). At different time points following treatment hearts were removed under anesthesia and perfused with PBS to remove blood. Each heart was cut into 10 pieces and snap-frozen in liquid nitrogen. Frozen tissues were homogenized in lysis buffer and sonicated to extract proteins for western blotting.

Top2a = target: T3, Top2a (Homo sapiens, UniProt P11388); test: Immunoblot of Top2a in U2OS cells treated with Dex and/or MG132; type: cell-based; details: 100 mM Dex for 2, 4, or 6 hours
T3 construct: endogenous in cells; host or cells: U2OS
Experimental: as §1, §2

T2 sequence (Q64511 2-1612 limits assumed): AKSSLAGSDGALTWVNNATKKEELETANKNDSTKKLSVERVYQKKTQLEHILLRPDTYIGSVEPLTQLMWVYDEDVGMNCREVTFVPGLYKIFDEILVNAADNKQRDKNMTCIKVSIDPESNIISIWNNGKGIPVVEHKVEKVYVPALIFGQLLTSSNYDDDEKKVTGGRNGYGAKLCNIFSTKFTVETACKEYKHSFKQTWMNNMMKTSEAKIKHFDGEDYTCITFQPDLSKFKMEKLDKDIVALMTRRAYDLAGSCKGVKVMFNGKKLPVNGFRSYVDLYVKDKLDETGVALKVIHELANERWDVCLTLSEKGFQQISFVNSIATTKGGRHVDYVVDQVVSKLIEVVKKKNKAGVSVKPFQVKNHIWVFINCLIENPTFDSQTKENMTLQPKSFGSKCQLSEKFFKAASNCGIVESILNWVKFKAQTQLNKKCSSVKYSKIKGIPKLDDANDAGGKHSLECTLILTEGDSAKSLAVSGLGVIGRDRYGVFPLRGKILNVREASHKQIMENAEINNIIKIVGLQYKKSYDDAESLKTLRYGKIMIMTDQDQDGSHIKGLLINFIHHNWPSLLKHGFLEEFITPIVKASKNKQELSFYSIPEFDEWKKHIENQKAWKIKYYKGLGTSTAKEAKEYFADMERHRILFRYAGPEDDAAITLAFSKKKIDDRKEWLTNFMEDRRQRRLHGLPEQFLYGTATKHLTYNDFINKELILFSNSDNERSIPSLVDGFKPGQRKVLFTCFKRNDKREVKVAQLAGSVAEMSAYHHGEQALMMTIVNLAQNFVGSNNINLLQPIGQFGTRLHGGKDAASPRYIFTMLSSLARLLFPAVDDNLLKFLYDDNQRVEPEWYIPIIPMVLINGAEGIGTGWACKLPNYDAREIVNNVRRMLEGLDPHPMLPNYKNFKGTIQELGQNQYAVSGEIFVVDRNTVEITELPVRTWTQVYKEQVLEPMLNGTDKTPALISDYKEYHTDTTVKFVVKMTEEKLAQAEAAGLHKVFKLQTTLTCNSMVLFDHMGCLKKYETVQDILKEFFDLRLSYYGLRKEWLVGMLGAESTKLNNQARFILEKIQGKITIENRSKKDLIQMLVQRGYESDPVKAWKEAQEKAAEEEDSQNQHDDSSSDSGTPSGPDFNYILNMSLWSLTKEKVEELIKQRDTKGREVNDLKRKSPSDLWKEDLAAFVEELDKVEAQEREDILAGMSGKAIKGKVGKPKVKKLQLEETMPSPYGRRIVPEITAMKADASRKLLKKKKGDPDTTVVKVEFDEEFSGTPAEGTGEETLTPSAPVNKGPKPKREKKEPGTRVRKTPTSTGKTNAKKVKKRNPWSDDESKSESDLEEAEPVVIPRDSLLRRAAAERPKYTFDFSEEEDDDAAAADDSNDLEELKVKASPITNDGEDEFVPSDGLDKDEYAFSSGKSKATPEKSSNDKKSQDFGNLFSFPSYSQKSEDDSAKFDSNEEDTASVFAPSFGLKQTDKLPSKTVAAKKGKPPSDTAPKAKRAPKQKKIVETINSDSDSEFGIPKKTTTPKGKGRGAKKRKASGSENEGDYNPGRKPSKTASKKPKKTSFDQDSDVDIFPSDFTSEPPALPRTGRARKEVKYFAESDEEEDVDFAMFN
T1 sequence (Q02880 2-1626 limits assumed): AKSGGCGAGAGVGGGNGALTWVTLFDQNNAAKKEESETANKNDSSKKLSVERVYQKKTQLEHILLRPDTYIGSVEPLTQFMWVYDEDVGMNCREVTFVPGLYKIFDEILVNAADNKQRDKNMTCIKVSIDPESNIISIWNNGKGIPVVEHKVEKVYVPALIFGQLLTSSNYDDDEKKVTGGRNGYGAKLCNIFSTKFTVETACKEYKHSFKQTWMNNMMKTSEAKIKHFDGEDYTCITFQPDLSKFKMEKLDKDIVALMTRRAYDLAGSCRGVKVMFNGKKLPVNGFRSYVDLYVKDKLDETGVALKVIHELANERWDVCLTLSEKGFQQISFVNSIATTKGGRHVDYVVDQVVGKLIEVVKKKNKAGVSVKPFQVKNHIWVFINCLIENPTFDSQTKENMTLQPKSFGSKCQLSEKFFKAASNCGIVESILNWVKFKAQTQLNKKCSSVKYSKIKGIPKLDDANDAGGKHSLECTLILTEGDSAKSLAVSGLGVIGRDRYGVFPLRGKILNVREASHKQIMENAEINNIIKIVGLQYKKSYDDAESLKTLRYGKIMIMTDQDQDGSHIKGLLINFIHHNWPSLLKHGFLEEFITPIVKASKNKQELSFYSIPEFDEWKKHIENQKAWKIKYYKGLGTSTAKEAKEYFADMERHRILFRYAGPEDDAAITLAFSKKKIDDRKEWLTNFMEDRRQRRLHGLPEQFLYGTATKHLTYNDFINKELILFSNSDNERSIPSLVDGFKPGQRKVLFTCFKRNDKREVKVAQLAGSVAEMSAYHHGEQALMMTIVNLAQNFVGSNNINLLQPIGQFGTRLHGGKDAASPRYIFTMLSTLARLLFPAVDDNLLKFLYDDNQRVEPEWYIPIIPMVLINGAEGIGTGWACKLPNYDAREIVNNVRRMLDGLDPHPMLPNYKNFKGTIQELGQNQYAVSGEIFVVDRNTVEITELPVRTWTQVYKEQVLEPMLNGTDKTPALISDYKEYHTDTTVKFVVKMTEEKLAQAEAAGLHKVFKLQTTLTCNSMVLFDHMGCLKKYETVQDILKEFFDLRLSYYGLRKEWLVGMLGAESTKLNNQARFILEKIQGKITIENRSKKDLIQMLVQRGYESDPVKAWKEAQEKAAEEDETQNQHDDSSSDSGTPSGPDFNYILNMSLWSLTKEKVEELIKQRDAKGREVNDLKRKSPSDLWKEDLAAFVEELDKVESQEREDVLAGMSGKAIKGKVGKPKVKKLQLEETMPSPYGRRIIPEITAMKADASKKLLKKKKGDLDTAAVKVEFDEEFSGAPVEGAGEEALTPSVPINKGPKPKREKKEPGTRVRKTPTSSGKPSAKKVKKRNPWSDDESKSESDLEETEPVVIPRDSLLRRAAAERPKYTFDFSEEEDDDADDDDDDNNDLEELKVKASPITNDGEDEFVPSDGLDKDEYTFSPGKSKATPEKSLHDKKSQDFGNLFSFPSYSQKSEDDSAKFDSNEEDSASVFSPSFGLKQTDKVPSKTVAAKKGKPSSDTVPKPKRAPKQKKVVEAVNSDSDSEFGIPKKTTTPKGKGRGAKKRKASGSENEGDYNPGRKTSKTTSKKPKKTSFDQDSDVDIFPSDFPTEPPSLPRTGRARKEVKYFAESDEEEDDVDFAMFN
T3 sequence (P11388 whole entry): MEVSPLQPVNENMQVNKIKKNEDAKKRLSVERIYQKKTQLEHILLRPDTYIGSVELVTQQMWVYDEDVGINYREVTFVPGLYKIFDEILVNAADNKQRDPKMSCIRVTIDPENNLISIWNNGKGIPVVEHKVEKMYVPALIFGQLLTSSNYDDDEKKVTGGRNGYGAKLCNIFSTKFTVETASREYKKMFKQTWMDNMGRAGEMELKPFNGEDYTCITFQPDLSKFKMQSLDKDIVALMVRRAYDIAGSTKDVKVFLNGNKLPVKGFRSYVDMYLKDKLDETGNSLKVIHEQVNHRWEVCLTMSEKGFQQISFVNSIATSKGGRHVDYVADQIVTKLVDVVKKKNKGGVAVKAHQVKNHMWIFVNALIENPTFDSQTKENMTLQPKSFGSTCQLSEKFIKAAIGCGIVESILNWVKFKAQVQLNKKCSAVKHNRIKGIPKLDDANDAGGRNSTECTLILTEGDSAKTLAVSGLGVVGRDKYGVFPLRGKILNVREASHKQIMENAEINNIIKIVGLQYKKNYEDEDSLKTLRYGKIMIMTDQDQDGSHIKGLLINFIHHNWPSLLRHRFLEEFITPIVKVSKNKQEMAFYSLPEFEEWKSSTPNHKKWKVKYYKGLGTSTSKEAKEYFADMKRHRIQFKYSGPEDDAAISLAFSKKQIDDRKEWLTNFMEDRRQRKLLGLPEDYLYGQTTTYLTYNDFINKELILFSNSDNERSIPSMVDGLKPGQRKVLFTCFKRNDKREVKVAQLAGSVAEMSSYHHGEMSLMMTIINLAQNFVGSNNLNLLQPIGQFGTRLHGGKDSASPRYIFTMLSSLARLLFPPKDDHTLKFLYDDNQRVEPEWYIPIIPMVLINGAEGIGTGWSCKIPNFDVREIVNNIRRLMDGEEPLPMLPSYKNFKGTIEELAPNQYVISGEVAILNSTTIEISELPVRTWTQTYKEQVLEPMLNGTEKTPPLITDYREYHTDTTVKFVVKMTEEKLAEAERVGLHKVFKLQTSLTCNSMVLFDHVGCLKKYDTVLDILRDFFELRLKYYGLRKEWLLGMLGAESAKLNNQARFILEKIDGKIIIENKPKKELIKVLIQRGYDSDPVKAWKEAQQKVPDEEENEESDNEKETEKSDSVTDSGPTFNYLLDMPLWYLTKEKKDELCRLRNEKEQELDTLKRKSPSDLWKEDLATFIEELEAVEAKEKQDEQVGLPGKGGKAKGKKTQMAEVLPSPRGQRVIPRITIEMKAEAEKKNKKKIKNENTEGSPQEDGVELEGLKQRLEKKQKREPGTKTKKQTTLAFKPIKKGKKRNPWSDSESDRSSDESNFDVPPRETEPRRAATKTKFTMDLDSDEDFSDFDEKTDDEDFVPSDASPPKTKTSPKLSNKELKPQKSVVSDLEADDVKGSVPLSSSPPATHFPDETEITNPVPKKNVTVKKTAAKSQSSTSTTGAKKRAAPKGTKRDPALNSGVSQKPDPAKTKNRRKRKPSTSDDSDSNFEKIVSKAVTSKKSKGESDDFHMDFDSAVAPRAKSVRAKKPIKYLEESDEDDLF

CC(C)C[C@@H](C=O)NC(=O)[C@H](CC(C)C)NC(=O)[C@H](CC(C)C)NC(=O)OCc1ccccc1 [MG132] (Cbz-Leu-Leu-Leu-aldehyde)
Effect on Dex-mediated Top2b degradation (Top2b [1]; 10 mM MG132 with 100 mM Dex, 2, 4, or 6 hours): inhibited

CC/C(=C(\c1ccccc1)c1ccc(OCCN(C)C)cc1)c1ccccc1 [Tamoxifen, tamoxifen]
Effect on ejection fractions (mouse heart; tamoxifen 25 mg/kg gavage once a day for 5 days, all three Top2b genotype groups): did not significantly affect

C[C@@H](CN1CC(=O)NC(=O)C1)N1CC(=O)NC(=O)C1 [dexrazoxane]
Protection against doxorubicin-induced DNA double strand breaks in the heart (γH2AX-positive nuclei) [2]: protects against doxorubicin-induced DNA double strand breaks | Protection against doxorubicin-induced apoptosis in the heart (TUNEL-positive nuclei) (heart sections): protects against doxorubicin-induced apoptosis | Time point at which Top2b levels begin to recover (Top2b [3]): 12 h | Top2b protein level in the heart at 6 hours (Top2b [3]; 6 hours after therapy): nearly undetectable | Top2b protein level in the heart at 24 hours (Top2b [3]; 24 hours): still noticeably reduced | Top2b protein levels in the heart (Top2b [3]; time course): greatly reduced | Degradation of Top2b (Top2b [1]; 100 mM Dex for 2, 4, or 6 hours): caused degradation of Top2b | Degradation of Top2a (Top2a): but not Top2a | Ejection fraction, Dex in combination with doxorubicin (mouse heart; dexrazoxane 100 mg/kg ip 8 hrs prior to doxorubicin 5 mg/kg ip once a week for 5 weeks): unchanged | Ejection fraction, Dex alone (mouse heart; mice, dexrazoxane 100 mg/kg ip alone): unchanged
